In brackets after ≈: the same amount, converted by molar mass.
Assays:
MCF-7/HER2 = assay: Cell viability MTT assay; assay type: cell-based; settings: Homo sapiens, MCF7
Experimental: (§1) Cell viabilities of the three BC cell lines of MCF-7, MCF-7/HER2, and SKBR-3 treated with Tynen®, the LsbMDDs, DNS-LsbMDDs, and HER2-LsbMDDs were evaluated by an MTT assay. Cells were seeded at a density of 5 × 10^4 cells per well in 24-well plates and incubated for 24 h at 37 °C with 5% CO2. Then, they were treated with different concentrations of the formulations for 4 h under the same conditions. After incubation for 48 h, 50 μL of MTT (6 mg/mL) was added to each well for 3 h. The medium was removed and 200 μL of DMSO was added to each well and gently shaken to dissolve any purple formazan crystal formations. The absorbance of each well was measured at 550 nm (BioTek, Winooski, VT).

MCF-7 = assay: Cell viability MTT assay; assay type: cell-based; settings: Homo sapiens, MCF7
Experimental: as §1

What does the source list for `CC(=O)O[C@@]12CO[C@@H]1C[C@H](O)[C@@]1(C)C(=O)[C@H](O)C3=C(C)[C@@H](OC(=O)[C@H](O)[C@@H](NC(=O)OC(C)(C)C)c4ccccc4)C[C@@](O)([C@@H](OC(=O)c4ccccc4)[C@H]21)C3(C)C` [DTX, docetaxel]?
IC50 (MCF-7/HER2): 0.052 µg/mL (≈ 0.0644 µM); IC50 (MCF-7): 0.763 µg/mL (≈ 0.944 µM)

From PMC6058516, “Bispecific antibodies (anti-mPEG/anti-HER2) for active tumor targeting of docetaxel (DTX)-loaded mPEGylated nanocarriers to enhance the chemotherapeutic efficacy of HER2-overexpressing tumors” (Drug Delivery, 2018)
